Results published in patent US9192650B2, “Methods of inhibiting photoreceptor apoptosis by eliciting the Faim2 antiapoptotic pathway” (The Regents of the University of Michigan, priority 2011, dated 2015).
Entries after “also recorded” stand apart in the source; their conditions may differ.

Key:
[1] = tested on: c-Jun; experiment: Immunoblot of phosphorylation of JNK-target c-Jun (P-c-Jun) in Fas-AAb treated 661W cells; type: cell-based; settings: inhibitor pretreatment 1 hour before Fas-AAb
Experimental: (§1) The 661W cell line was maintained in Dulbecco's modified Eagle's medium containing 10% fetal bovine serum, 300 mg/L glutamine, 32 mg/L putrescine, 40 μL/L of β-mercaptoethanol, and 40 μg/L of both hydrocortisone 21-hemisuccinate and progesterone. The media also contained penicillin (90 units/mL) and streptomycin (0.09 mg/mL). Cells were grown at 37° C. in a humidified atmosphere of 5% CO2 and 95% air.
(§2) Retinas from experimental eyes with detachments and control eyes without detachments were dissected from the RPE-choroid, homogenized, and lysed in buffer containing 10 mM HEPES (pH 7.6), 0.5% IgEPal, 42 mM KCl, 1 mM phenylmethylsulfonyl fluoride (PMSF), 1 mM EDTA, 1 mM EGTA, 1 mM dithiothreitol (DTT), and 5 mM MgCl2 and 1 tablet of protease inhibitors per 10 mL buffer (Complete Mini; Roche Diagnostics GmbH, Madison, Wis.). 661W cells were lysed and homogenized in lysis buffer (as above). The homogenates were incubated on ice and centrifuged at 22,000 g at 4° C. for 60 minutes. The protein concentration of the supernatant was then determined (DC Protein Assay kit; Bio-Rad Laboratories, Hercules, Calif.). The protein samples were separated on SDS-polyacrylamide gels (Tris-HCl Ready Gels; Bio-Rad Laboratories, Hercules, Calif.). […] Protein bands were visualized with Ponceau S staining, and the lanes were assessed for equal loading by densitometry of entire lanes. […]

[2] = tested on: ERK; experiment: Immunoblot of ERK phosphorylation (P-ERK) in Fas-AAb treated 661W cells; type: cell-based; settings: inhibitor pretreatment 1 hour before Fas-AAb
Experimental: as §1, §2

[3] = tested on: caspase 8; experiment: Luminescent caspase 8 activity assay in 661W cells; type: cell-based
Experimental: as §1
Caspase 8 and Caspase 3 activity were measured by a commercially available luminescent tetrapeptide cleavage assay kits (Promega, Madison, Wis.). The 661W cells were seeded in 96-well plates (Nunc, Rochester, N.Y.) at 1000-1500 cells/well for 24 hours prior to treatment or siRNA transfection. Cells were treated with 500 ng/mL of Fas-agonistic Jo2 monoclonal antibody (BD Biosciences, Franklin Lakes, N.J.). In some experiments, cells were pretreated with MEK inhibitor U0126, JNK inhibitor SP600125, or DMSO. Caspase activity was measured at various time points by incubating the cells with the pro-luminescent substrate in 96-well plates following manufacturer's instructions. Controls included untreated cells and wells with no cells. Luminescence was measured in a plate reader luminometer (Turner Biosystems, Sunnyvale, Calif.). […]

[4] = tested on: caspase 3; experiment: Luminescent caspase 3 activity assay in 661W cells; type: cell-based
Experimental: as §1
(§3) Caspase 8 and Caspase 3 activity were measured by a commercially available luminescent tetrapeptide cleavage assay kits (Promega, Madison, Wis.). The 661W cells were seeded in 96-well plates (Nunc, Rochester, N.Y.) at 1000-1500 cells/well for 24 hours prior to treatment or siRNA transfection. Cells were treated with 500 ng/mL of Fas-agonistic Jo2 monoclonal antibody (BD Biosciences, Franklin Lakes, N.J.). In some experiments, cells were pretreated with MEK inhibitor U0126, JNK inhibitor SP600125, or DMSO. Caspase activity was measured at various time points by incubating the cells with the pro-luminescent substrate in 96-well plates following manufacturer's instructions. Controls included untreated cells and wells with no cells. Luminescence was measured in a plate reader luminometer (Turner Biosystems, Sunnyvale, Calif.).

[5] = tested on: 661W cells; experiment: Luminescent cell viability assay, Fas-mediated cell death of 661W cells; type: cell-based; settings: 661W cells treated with Fas-AAb
Experimental: as §1
as §3, with “Cell viability was” for “Caspase 8 and Caspase 3 activity were”, “luminescent” for “luminescent tetrapeptide cleavage”, “kit” for “kits”, “treatment.” for “treatment or siRNA transfection.”, “Cell viability” for “Caspase activity”, “Sunnyvale” for “Sunnyvale,”

[6] = tested on: Faim2; experiment: Immunoblot of Faim2 protein levels in 661W cells; type: cell-based, mouse; settings: 661W cells treated with Fas-AAb
Experimental: as §1, §2

[7] = 661W cells treated with Fas-AAb
[8] = 661W cells, 24 hours of Fas-AAb treatment

Row | Structure (SMILES) | Concentration of maximal effect on Fas-AAb-dependent c-Jun phosphorylation [1] | Concentration of maximal inhibition of Fas-AAb-induced ERK phosphorylation [2] | Effect on Fas-AAb-induced phosphorylation of ERK ([2]; protein isolated 4 hours later) | Maximally-effective dose for increasing caspase 8 activity [3, 7] | Caspase 8 activity in presence of inhibitor [3, 8] | Maximally-effective dose for increasing caspase 3 activity [4, 7] | Caspase 3 activity in presence of inhibitor [4, 8] | Fas-AAb-mediated cell death in presence of inhibitor [5] | Faim2 levels in Fas-AAb treated cells in presence of MAPK inhibitor [6] | Faim2 level by densitometry ([6]; 10 μM dose of inhibitor)
1 | Oc1c2ccccc2c2c3c(cccc13)N=N2 [SP600125] | 10 to 20 µM | – | – | – | – | – | – | – | – | –
2 | N#CC(=C(/N)Sc1ccccc1N)/C(C#N)=C(\N)Sc1ccccc1N [U0126] | – | 10 µM | effective in preventing | 10 µM | dose-dependent increase | 10 µM | dose-dependent increase | increased Fas-AAb-mediated cell death | dose-dependent inhibition; also recorded: reduced the levels of Faim2 | significant decrease
